Our source for the MIC values is ChEMBL document CHEMBL5143690, “Identification of nitrofuranylchalcone tethered benzoxazole-2-amines as potent inhibitors of drug resistant Mycobacterium tuberculosis demonstrating bactericidal efficacy” (Bioorg Med Chem, 2022).

≈ marks a conversion by molar mass, not a printed value.

Type in all cases: functional
For assay [1], the system named is Mycobacterium tuberculosis. Description: Antimycobacterial activity against rifampicin-resistant Mycobacterium tuberculosis H37Rv ATCC 35838 assessed as inhibition of bacterial growth incubated for 48 hrs by resazurin microtitre assay. (The colour change of resazurin is a common sign of viable cells or microbes.)
Assay [2] deals with Mycobacterium tuberculosis. The assay can be described thus: Antimycobacterial activity against ethambutol-resistant Mycobacterium tuberculosis H37Rv ATCC 35837 assessed as inhibition of bacterial growth incubated for 48 hrs by resazurin microtitre assay.
Assay [3] concerns Mycobacterium tuberculosis. The assay can be described thus: Antimycobacterial activity against isoniazid-resistant Mycobacterium tuberculosis H37Rv ATCC 35822 assessed as inhibition of bacterial growth incubated for 48 hrs by broth microdilution assay. On the technique in general: In broth dilution the organism is exposed to a series of concentrations in liquid medium.
The test system of assay [4] is Mycobacterium tuberculosis. Description: Antimycobacterial activity against Streptomycin-resistant Mycobacterium tuberculosis H37Rv ATCC 35820 assessed as inhibition of bacterial growth incubated for 48 hrs by resazurin microtitre assay.

By MIC is commonly meant the smallest concentration in the dilution series that meets the test's criterion for growth inhibition. As for `O=C(/C=C/c1ccc([N+](=O)[O-])o1)c1ccc(Nc2nc3ccccc3o2)cc1`, the MIC was determined as 0.03 µg/mL (≈ 0.0799 µM) in assay [1], 0.03 µg/mL (≈ 0.0799 µM) in assay [2], 0.06 µg/mL (≈ 0.16 µM) in assay [3] and 0.12 µg/mL (≈ 0.32 µM) in assay [4].

`O=C(/C=C/c1ccc([N+](=O)[O-])o1)c1ccc(Nc2nc3cc([N+](=O)[O-])ccc3o2)cc1`: the MIC is 0.03 µg/mL (≈ 0.0714 µM) in assay [1], 0.06 µg/mL (≈ 0.143 µM) in assay [2], 0.25 µg/mL (≈ 0.595 µM) in assay [3] and 0.12 µg/mL (≈ 0.285 µM) in assay [4].

Take `O=C(/C=C/c1ccc([N+](=O)[O-])o1)c1ccc(Nc2nc3cc(Cl)ccc3o2)cc1`: the MIC came to 0.03 µg/mL (≈ 0.0732 µM) in assay [1], 0.03 µg/mL (≈ 0.0732 µM) in assay [2], 0.06 µg/mL (≈ 0.146 µM) in assay [3] and 0.06 µg/mL (≈ 0.146 µM) in assay [4].

With `CC[C@@H](CO)NCCN[C@@H](CC)CO` [ETHAMBUTOL], the MIC in assay [1] came out at 1 µg/mL (≈ 4.89 µM); in assay [2], 32 µg/mL (≈ 157 µM); in assay [3], 1 µg/mL (≈ 4.89 µM); in assay [4] it was 1 µg/mL (≈ 4.89 µM).

Consider `Cc1ccc2oc(Nc3ccc(C(=O)/C=C/c4ccc([N+](=O)[O-])o4)cc3)nc2c1`, for which the MIC in assay [1] is 0.03 µg/mL (≈ 0.077 µM); in assay [2], 0.06 µg/mL (≈ 0.154 µM); in assay [3] it was 0.12 µg/mL (≈ 0.308 µM); in assay [4], 0.06 µg/mL (≈ 0.154 µM).

For `NNC(=O)c1ccncc1` [ISONIAZID], the MIC was 0.03 µg/mL (≈ 0.219 µM) in assay [1], 0.03 µg/mL (≈ 0.219 µM) in assay [2], over 64 µg/mL in assay [3] and 0.03 µg/mL (≈ 0.219 µM) in assay [4].

For `O=C(/C=C/c1ccc([N+](=O)[O-])o1)c1cccc(Nc2nc3ccccc3o2)c1`, the minimum inhibitory concentration (MIC) in assay [1] was 0.03 µg/mL (≈ 0.0799 µM); in assay [2], 0.06 µg/mL (≈ 0.16 µM); in assay [3] it was 0.25 µg/mL (≈ 0.666 µM); in assay [4] it was 0.12 µg/mL (≈ 0.32 µM).

`CN[C@@H]1[C@H](O[C@H]2[C@H](O[C@H]3[C@H](O)[C@@H](O)[C@H](N=C(N)N)[C@@H](O)[C@@H]3N=C(N)N)O[C@@H](C)[C@]2(O)C=O)O[C@@H](CO)[C@H](O)[C@H]1O` [STREPTOMYCIN]: the MIC in assay [1] was 1 µg/mL (≈ 1.72 µM); in assay [2], 1 µg/mL (≈ 1.72 µM); in assay [3], 1 µg/mL (≈ 1.72 µM); in assay [4], over 64 µg/mL.

For the compound `CO[C@H]1/C=C/O[C@@]2(C)Oc3c(C)c(O)c4c(O)c(c(/C=N/N5CCN(C)CC5)c(O)c4c3C2=O)NC(=O)/C(C)=C\C=C\[C@H](C)[C@H](O)[C@@H](C)[C@@H](O)[C@@H](C)[C@H](OC(C)=O)[C@@H]1C` [RIFAMPIN], the minimum inhibitory concentration (MIC) came to 64 µg/mL (≈ 77.8 µM) in assay [1], 0.03 µg/mL (≈ 0.0365 µM) in assay [2], 0.03 µg/mL (≈ 0.0365 µM) in assay [3] and 0.03 µg/mL (≈ 0.0365 µM) in assay [4].
